Where two headings read alike, the source gives them in different places.
Key:
[1] = system: HepG2 cells, primary human hepatocytes; settings: In vitro Assay; ref Garside 2014; cited from earlier work
[2] = plasma free fraction; cited from earlier work
[3] = system: isolated mouse liver mitochondria; settings: In vitro Assay; ref Porceddu 2012; cited from earlier work
[4] = system: THLE-Null and THLE-3A4 cells; settings: In vitro Assay; ref Gustafsson 2014; cited from earlier work
HepaRG spheroids = experiment: Combined HCI (HCS) and cellular ATP 3D assay in HepaRG spheroids; settings: for HepaRG <25x Avg Cmax ATP / HepaRG <100x Avg Cmaxu ATP: ATP endpoint; for HepaRG <25x Avg Cmax ATP / HepaRG <25x Avg Cmax HCS / HepaRG <25x Avg Cmax All: cut-off <25x Avg Cmax; for HepaRG <25x Avg Cmax HCS / HepaRG <100x Avg Cmaxu HCS: HCS endpoints; for HepaRG <25x Avg Cmax All: all endpoints (ATP and HCS); for HepaRG Cmax max All / HepaRG Cmax min All / HepaRG <10 uM All / HepaRG <100x Avg Cmaxu All: all endpoints; for HepaRG Cmax max All: Cmax max used; for HepaRG Cmax min All: Cmax min used; for AC50 / minimal effective concentration: Homo sapiens; for HepaRG <25x Avg Cmax ATP / HepaRG <25x Avg Cmax HCS / HepaRG <25x Avg Cmax All / HepaRG Cmax max All / HepaRG Cmax min All / AC50 / minimal effective concentration / HepaRG <100x Avg Cmaxu ATP / HepaRG <100x Avg Cmaxu HCS / HepaRG <10 uM All / HepaRG <100x Avg Cmaxu All: HepaRG; for DILI prediction HepaRG spheroids (HCS-MEC): Microtissue model structural based (HCI), combined HCS and ATP, MEC < 25 × Cmax.tot cut-off; for HepaRG <100x Avg Cmaxu ATP / HepaRG <100x Avg Cmaxu HCS / HepaRG <100x Avg Cmaxu All: cut-off <100x Avg Cmaxu; for HepaRG <10 uM All: cut-off <10 uM
[5] = system: HepG2 C3A spheroid, BSEP, Glu/Gal in HepG2 cells, bioactivation; settings: cited from earlier work; for Bayesian Machine Learning DILI prediction, Williams (2019): Bayesian modeling, ref Williams et al. 2019; for Bayesian Machine Learning: In vitro Assay, ref Williams 2019
hLiMTs [6] = experiment: Combined HCI (HCS) and cellular ATP 3D assay in hLiMTs; settings: for AC50 / minimal effective concentration: Homo sapiens; for DILI prediction hLiMTs (HCS-MEC): Microtissue model structural based (HCI), combined HCS and ATP, MEC < 25 × Cmax.tot cut-off; for hLiMTs <25x Avg Cmax ATP / hLiMTs <100x Avg Cmaxu ATP: ATP endpoint; for hLiMTs <25x Avg Cmax ATP / hLiMTs <25x Avg Cmax HCS / hLiMTs <25x Avg Cmax All: cut-off <25x Avg Cmax; for hLiMTs <25x Avg Cmax HCS / hLiMTs <100x Avg Cmaxu HCS: HCS endpoints; for hLiMTs <25x Avg Cmax All: all endpoints (ATP and HCS); for hLiMTs Cmax max All / hLiMTs Cmax min All / hLiMTs <10 uM All / hLiMTs <100x Avg Cmaxu All: all endpoints; for hLiMTs Cmax max All: Cmax max used; for hLiMTs Cmax min All: Cmax min used; for hLiMTs <100x Avg Cmaxu ATP / hLiMTs <100x Avg Cmaxu HCS / hLiMTs <100x Avg Cmaxu All: cut-off <100x Avg Cmaxu; for hLiMTs <10 uM All: cut-off <10 uM
[7] = Plasma free fraction (fu) and unbound Cmax (Cmax,u); assay type: in vitro ADME, human; settings: unbound plasma Cmax
human hepatocytes = settings: cited from earlier work; for Structural based (HCI): In vitro Assay, ref Xu 2008; for DILI in vitro assay prediction, Xu (2008): Structural based (HCI), human hepatocytes, ref Xu et al. 2008
[8] = read-out: Human plasma Cmax; total plasma Cmax.tot, median of 9 literature references; cited from earlier work
PHH spheroids = settings: cited from earlier work; for hLiMTs ATP <20 x Cmax: In vitro Assay, ref Vorrink 2018
[9] = cited from earlier work
hLiMTs [10] = settings: cited from earlier work
PHH = settings: cited from earlier work
[11] = cited from earlier work; remark: listed apart in the source
[12] = system: THLE or HepG2 cells, isolated mitochondria, BSEP; settings: cited from earlier work
rBsep = settings: In vitro Assay; ref Dawson 2012; cited from earlier work
[13] = In vitro Assay, ref Proctor 2017
[14] = Modeled in vitro assays (cytotoxicity, mitochondrial dysfunction, BSEP), ref Aleo et al. 2019

COc1ccc2c(c1)c(CC(=O)O)c(C)n2C(=O)c1ccc(Cl)cc1 [indomethacin]
Cluster 1-6 +VE Assay [1]: -VE
fu [2]: 0.010
in vitro data EC2<=1x Cmax [3]: +VE
THLE-Null [4]: -VE
HepaRG <25x Avg Cmax ATP (HepaRG spheroids): +ve
HepaRG <25x Avg Cmax HCS (HepaRG spheroids): +ve
HepaRG <25x Avg Cmax All (HepaRG spheroids): +ve
HepaRG Cmax max All (HepaRG spheroids): +ve
HepaRG Cmax min All (HepaRG spheroids): +ve
AC50 (HepaRG spheroids; read-out: ATP endpoint AC50): 94.2 µM
minimal effective concentration (HepaRG spheroids; read-out: ATP endpoint MEC): 79.2 µM
AC50 (HepaRG spheroids; read-out: HCS endpoint AC50): 215 µM
minimal effective concentration (HepaRG spheroids; read-out: HCS endpoint MEC): 23.8 µM
DILI prediction HepaRG spheroids (HCS-MEC) (HepaRG spheroids): +VE (MEC < 25 × Cmax.tot cut-off)
Bayesian Machine Learning DILI prediction, Williams (2019) [5]: +VE
Bayesian Machine Learning [5]: +VE
AC50 (hLiMTs [6]; read-out: ATP endpoint AC50): 9.29 µM
minimal effective concentration (hLiMTs [6]; read-out: ATP endpoint MEC): 4.54 µM
AC50 (hLiMTs [6]; read-out: HCS endpoint AC50): 672 µM
minimal effective concentration (hLiMTs [6]; read-out: HCS endpoint MEC): 95.2 µM
DILI prediction hLiMTs (HCS-MEC) (hLiMTs [6]): +VE (MEC < 25 × Cmax.tot cut-off)
hLiMTs <25x Avg Cmax ATP (hLiMTs [6]): +ve
hLiMTs <25x Avg Cmax HCS (hLiMTs [6]): +ve
hLiMTs <25x Avg Cmax All (hLiMTs [6]): +ve
hLiMTs Cmax max All (hLiMTs [6]): +ve
hLiMTs Cmax min All (hLiMTs [6]): +ve
Human plasma Cmax,u [7]: 84 nM
Structural based (HCI) (human hepatocytes): -VE
DILI in vitro assay prediction, Xu (2008) (human hepatocytes): -VE
Cmax [8]: 8380 nM
hLiMTs ATP <20 x Cmax (PHH spheroids): +VE (IC20 < 20 × Cmax.tot cut-off)

CC(C)(C)NCC(O)COc1cccc2c1CC(O)C(O)C2 (centres unmarked) [nadolol]
fu [2]: 0.700
DILI severity category (Chen et al. [2016]) ([9]; LTKB DILIrank category, ref Chen et al. 2016): Ambiguous
DILI severity category (Chen 2016) ([9]; human DILI classification, LTKB DILIrank, ref Chen et al. 2016): Ambiguous
DILI severity category ([9]; human DILI severity, ref Chen et al.): Ambiguous
DILI +VE (5-8), DILI -VE (-4) ([9]; ref Chen 2016): -VE
DILI severity category ([9]; ref Chen 2016): Ambiguous DILI-concern
HepaRG <25x Avg Cmax ATP (HepaRG spheroids): -ve
HepaRG <100x Avg Cmaxu ATP (HepaRG spheroids): -ve
HepaRG <25x Avg Cmax HCS (HepaRG spheroids): -ve
HepaRG <100x Avg Cmaxu HCS (HepaRG spheroids): -ve
HepaRG <25x Avg Cmax All (HepaRG spheroids): -ve
HepaRG Cmax max All (HepaRG spheroids): -ve
HepaRG Cmax min All (HepaRG spheroids): -ve
HepaRG <10 uM All (HepaRG spheroids): -ve
HepaRG <100x Avg Cmaxu All (HepaRG spheroids): -ve
DILI prediction HepaRG spheroids (HCS-MEC) (HepaRG spheroids): -VE
Bayesian Machine Learning DILI prediction, Williams (2019) [5]: -VE
Bayesian Machine Learning [5]: -VE
DILI prediction hLiMTs (HCS-MEC) (hLiMTs [6]): -VE
hLiMTs <25x Avg Cmax ATP (hLiMTs [6]): -ve
hLiMTs <100x Avg Cmaxu ATP (hLiMTs [6]): -ve
hLiMTs <25x Avg Cmax HCS (hLiMTs [6]): -ve
hLiMTs <100x Avg Cmaxu HCS (hLiMTs [6]): -ve
hLiMTs <25x Avg Cmax All (hLiMTs [6]): -ve
hLiMTs Cmax max All (hLiMTs [6]): -ve
hLiMTs Cmax min All (hLiMTs [6]): -ve
hLiMTs <10 uM All (hLiMTs [6]): -ve
hLiMTs <100x Avg Cmaxu All (hLiMTs [6]): -ve
Human plasma Cmax,u [7]: 294 nM
Structural based (HCI) (human hepatocytes): -VE
DILI in vitro assay prediction, Xu (2008) (human hepatocytes): -VE
hLiMTs ATP <100uM (hLiMTs [10]; [13]): -VE
hLiMTs/100xCmax, Proctor (2017) (hLiMTs [10]; hLiMTs, ATP, IC50 < 100 × Cmax.tot, ref Proctor et al. 2017): -VE
hLiMTs/100uM, Proctor (2017) (hLiMTs [10]; hLiMTs, ATP, IC50 threshold 100 µM, ref Proctor et al. 2017): -VE
PHH/100xCmax, Proctor (2017) (PHH; 2D PHH, ATP, IC50 < 100 × Cmax.tot, ref Proctor et al. 2017): -VE
PHH/100uM, Proctor (2017) (PHH; 2D PHH, ATP, IC50 threshold 100 µM, ref Proctor et al. 2017): -VE
PHH ATP <100uM (PHH; [13]): -VE
Cmax [8]: 420 nM
Assigned DILI category ([11]; Chen et al. 2016 or literature alignment, ref Chen et al. 2016): 1
In vivo DILI ([11]; ref Proctor 2017): -VE
In vivo DILI ([11]; ref Vorrink 2018): -VE
In vivo DILI ([11]; ref Williams 2019): -VE
In vivo DILI ([11]; ref Xu 2008): -VE
hLiMTs ATP <20 x Cmax (PHH spheroids): -VE
DILI in vitro assay prediction, Vorrink (2018) (PHH spheroids; PHH spheroids, ATP, 14 days, IC20 < 20 × Cmax.tot, ref Vorrink et al. 2018): -VE

CN1CCN(C2=Nc3cc(Cl)ccc3Nc3ccccc32)CC1 [clozapine]
fu [2]: 0.030
THLE-Null [4]: -VE
HepaRG <25x Avg Cmax ATP (HepaRG spheroids): +ve
HepaRG <100x Avg Cmaxu ATP (HepaRG spheroids): -ve
HepaRG <25x Avg Cmax HCS (HepaRG spheroids): +ve
HepaRG <100x Avg Cmaxu HCS (HepaRG spheroids): +ve (<100x Avg Cmaxu)
HepaRG <25x Avg Cmax All (HepaRG spheroids): +ve
HepaRG Cmax max All (HepaRG spheroids): +ve
HepaRG Cmax min All (HepaRG spheroids): +ve
HepaRG <10 uM All (HepaRG spheroids): +ve (<10 uM)
HepaRG <100x Avg Cmaxu All (HepaRG spheroids): +ve (<100x Avg Cmaxu)
AC50 (HepaRG spheroids; read-out: ATP endpoint AC50): 16.6 µM
minimal effective concentration (HepaRG spheroids; read-out: ATP endpoint MEC): 13.1 µM
AC50 (HepaRG spheroids; read-out: HCS endpoint AC50): 13.2 µM
minimal effective concentration (HepaRG spheroids; read-out: HCS endpoint MEC): 4.66 µM
DILI prediction HepaRG spheroids (HCS-MEC) (HepaRG spheroids): +VE (MEC < 25 × Cmax.tot cut-off)
Bayesian Machine Learning DILI prediction, Williams (2019) [5]: +VE
Bayesian Machine Learning [5]: +VE
AC50 (hLiMTs [6]; read-out: ATP endpoint AC50): 14 µM
minimal effective concentration (hLiMTs [6]; read-out: ATP endpoint MEC): 10.5 µM
AC50 (hLiMTs [6]; read-out: HCS endpoint AC50): 15.2 µM
minimal effective concentration (hLiMTs [6]; read-out: HCS endpoint MEC): 5.61 µM
DILI prediction hLiMTs (HCS-MEC) (hLiMTs [6]): +VE (MEC < 25 × Cmax.tot cut-off)
hLiMTs <25x Avg Cmax ATP (hLiMTs [6]): +ve
hLiMTs <100x Avg Cmaxu ATP (hLiMTs [6]): -ve
hLiMTs <25x Avg Cmax HCS (hLiMTs [6]): +ve
hLiMTs <100x Avg Cmaxu HCS (hLiMTs [6]): +ve (<100x Avg Cmaxu)
hLiMTs <25x Avg Cmax All (hLiMTs [6]): +ve
hLiMTs Cmax max All (hLiMTs [6]): +ve
hLiMTs Cmax min All (hLiMTs [6]): +ve
hLiMTs <10 uM All (hLiMTs [6]): +ve (<10 uM)
hLiMTs <100x Avg Cmaxu All (hLiMTs [6]): +ve (<100x Avg Cmaxu)
Human plasma Cmax,u [7]: 73 nM
Partition Hybrid HRM Score ([12]; In vitro Assay, ref Aleo 2019): +VE
Ro2 Hybrid HRM Score ([12]; In vitro Assay, ref Aleo 2019): +VE
Partition Hybrid HRM Score ≥4, Aleo (2019) [12, 14]: +VE (Partition Hybrid HRM Score ≥4)
Partition Hybrid HRM Score ≥8, Aleo (2019) [12, 14]: -VE
Rule of Two hybrid HRM Score ≥3, Aleo (2019) [12, 14]: +VE (Rule of Two hybrid HRM Score ≥3)
Rule of Two hybrid HRM Score ≥8, Aleo (2019) [12, 14]: -VE
Inhibition of rBsep cutoff<1& cmax u>.2 (rBsep): -VE
Inhibition of rBsep cutoff<3 (rBsep): +VE
Cmax [8]: 2450 nM
hLiMTs ATP <20 x Cmax (PHH spheroids): +VE (IC20 < 20 × Cmax.tot cut-off)
